Patent US20150266850A1 (E.I.DU PONT DE NEMOURS AND COMPANY, priority 2012, published 2015)
Marks after values point to notes of the source that are not given here.

What was measured:
Assay type in all cases: in vivo
Details in all cases: 100 = 100% disease control
Septoria nodorum = assay: Test D: wheat glume blotch, preventive spray on wheat seedlings, visual disease rating
Source text: (§1) General protocol for preparing test suspensions for Tests A-E: the test compounds were first dissolved in acetone in an amount equal to 11% of the final volume and then suspended at the desired concentration (in ppm) in acetone and purified water (50/50 mix by volume) containing 250 ppm of the surfactant Trem® 014 (polyhydric alcohol esters). The resulting test suspensions were then used in Tests A-E. Spraying a 200 ppm test suspension to the point of run-off on the test plants was the equivalent of a rate of 800 g/ha.
(§2) The test suspension was sprayed to the point of run-off on wheat seedlings. The following day the seedlings were inoculated with a spore suspension of Septoria nodorum (the causal agent of wheat glume blotch) and incubated in a saturated atmosphere at 20° C. for 48 h, and then moved to a growth chamber at 20° C. for 7 days, after which time disease ratings were visually made.
(§3) Results for Tests A-E are given in Table A. In the Table, a rating of 100 indicates 100% disease control and a rating of 0 indicates no disease control (relative to the controls). A dash (-) indicates no test results. All results are for 200 ppm except where followed by an “*”, which indicates 40 ppm or “**”, which indicates 50 ppm.

[1] = tested on: Puccinia recondita f sp. tritici; assay: Test B: wheat leaf rust, preventive spray on wheat seedlings, visual disease rating
Source text: as §1
as §2, with “Puccinia recondita f sp. tritici” for “Septoria nodorum”, “leaf rust)” for “glume blotch)”, “24” for “48”
as §3

Botrytis cinerea = assay: Test E: tomato botrytis, preventive spray on tomato seedlings, visual disease rating
Source text: as §1
The test suspension was sprayed to the point of run-off on tomato seedlings. The following day the seedlings were inoculated with a spore suspension of Botrytis cinerea (the causal agent of tomato botrytis) and incubated in saturated atmosphere at 20° C. for 48 h, and then moved to a growth chamber at 27° C. for 3 additional days, after which time disease ratings were visually made.
as §3

[2] = tested on: Erysiphe graminis f. sp. tritici; assay: Test A: wheat powdery mildew, preventive spray on wheat seedlings, visual disease rating
Source text: as §1
The test suspension was sprayed to the point of run-off on wheat seedlings. The following day the seedlings were inoculated with a spore dust of Erysiphe graminis f. sp. tritici, (the causal agent of wheat powdery mildew) and incubated in a growth chamber at 20° C. for 8 days, after which time disease ratings were visually made.
as §3

Septoria tritici = assay: Test C: wheat leaf blotch, preventive spray on wheat seedlings, visual disease rating
Source text: as §1
The test suspension was sprayed to the point of run-off on wheat seedlings. The following day the seedlings were inoculated with a spore suspension of Septoria tritici (the causal agent of wheat leaf blotch) and incubated in a saturated atmosphere at 24° C. for 48 h, and then moved to a growth chamber at 20° C. for 19 days, after which time disease ratings were visually made.
as §3

Compound	Test D disease control rating (Septoria nodorum; 200 ppm) [%]	Test B disease control rating ([1]; 200 ppm) [%]	Test E disease control rating (Botrytis cinerea; 200 ppm) [%]	Test A disease control rating ([2]; 200 ppm) [%]	Test C disease control rating (Septoria tritici; 200 ppm) [%]	Test D disease control rating (Septoria nodorum; 40 ppm (*))	Test B disease control rating ([1]; 40 ppm (*))	Test E disease control rating (Botrytis cinerea; 40 ppm (*))	Test A disease control rating ([2]; 40 ppm (*))	further results
COC(=O)NCc1cc(-n2ncc(-c3ccc(C)cc3OC)n2)ccc1C [Cmpd 7]	100	100	26	100	100					
COC(=O)NCc1cc(-n2ccc(-c3ccc(OC)cc3F)n2)ccc1C [Cmpd 9]	100	100	87	100	99					
COC(=O)NCc1cc(-n2ccc(-c3ccc(C)cc3OC)n2)ccc1C [Cmpd 12]	100	100	95	100	97					
COC(=O)NCc1cc(-n2ccc(-c3ccc(OC)cc3Cl)n2)ccc1C [Cmpd 13]	100	100	99	100	100					
COC(=O)NCc1cc(-n2ccc(-c3ccc(F)cc3OC)n2)ccc1C [Cmpd 14]	100	100	97	100	100					
COC(=O)NCc1cc(-c2ccn(-c3ccc(SC)cc3OC)n2)ccc1C [Cmpd 15]	100	100	64	96	77					
COC(=O)NCc1cc(-c2ccn(-c3ccc(OC)cc3SC)n2)ccc1C [Cmpd 16]	100	100	97	97	85					
COC(=O)NCc1cc(-c2ccn(-c3ccc(OC)cc3F)n2)ccc1C [Cmpd 19]		100	37	100	100					
COC(=O)NCc1cc(-c2ccn(-c3ccc(OC)cc3C#N)n2)ccc1C [Cmpd 21]	100	100	66	96	98					
COC(=O)NCc1cc(-c2ccn(-c3ccc(OC)cc3[N+](=O)[O-])n2)ccc1C [Cmpd 22]	100	100	85	0	100					
CCc1cc(OC)ccc1-n1ccc(-c2ccc(C)c(CNC(=O)OC)c2)n1 [Cmpd 26]	100	100	31	99	100					
C#Cc1cc(OC)ccc1-c1cnn(-c2ccc(C)c(CNC(=O)OC)c2)n1 [Cmpd 47]						100* %	100* %	0* %	99* %	
COC(=O)NCc1cc(-n2ncc(-c3ccc(OC)cc3OCC#N)n2)ccc1C [Cmpd 73]						100* %	100* %	0* %	99* %	
C#CCOc1cc(OC)ccc1-c1cnn(-c2ccc(C)c(CNC(=O)OC)c2)n1 [Cmpd 74]						100* %	100* %	8* %	98* %	
C=CCOc1cc(OC)ccc1-c1cnn(-c2ccc(C)c(CNC(=O)OC)c2)n1 [Cmpd 75]						100* %	100* %	8* %	90* %	
COC(=O)NCc1cc(-n2ccc(-c3ccc(OC)cc3C3CC3)n2)ccc1C [Cmpd 82]						100* %	100* %	0* %	99* %	
CCc1cc(OC)ccc1-c1ccn(-c2ccc(C)c(CNC(=O)OC)c2)n1 [Cmpd 83]						100* %	100* %	0* %	99* %	
COC(=O)NCc1cc(-n2ncc(-c3ccc(OC)cc3[N+](=O)[O-])n2)ccc1C [Cmpd 85]						100* %	100* %	0* %	99* %	
CCOc1cc(OC)ccc1-c1cnn(-c2ccc(C)c(CNC(=O)OC)c2)n1 [Cmpd 88]						100* %	100* %	0* %	100* %	
COC(=O)NCc1cc(-n2ccc(-c3ccc(I)cc3Cl)n2)ccc1C [Cmpd 92]						100* %	100* %	33* %	99* %	
COC(=O)NCc1cc(-c2ccn(-c3ccc(C#N)cc3C#N)n2)ccc1C [Cmpd 93]	64	0	0	0						
COC(=O)NCc1cc(-n2ncc(-c3ccc(I)cc3OC)n2)ccc1C [Cmpd 95]						100* %	100* %	0* %	98* %	
COC(=O)NCc1cc(-n2ncc(-c3ccc(OC)cc3I)n2)ccc1C [Cmpd 96]						100* %	100* %	70* %	99* %	
COC(=O)NCc1cc(-n2ncc(-c3ccc(C)cc3OCC#N)n2)ccc1C [Cmpd 98]						100* %	100* %	6* %	95* %	
C#Cc1ccc(-c2cnn(-c3ccc(C)c(CNC(=O)OC)c3)n2)c(OC)c1 [Cmpd 99]						100* %	100* %	14* %	99* %	
COC(=O)NCc1cc(-n2ncc(-c3ccc(OC)cc3I)[n+]2[O-])ccc1C [Compound 94]										pest or weed control at 40 ppm (Septoria nodorum; Parastagonospora nodorum, 216 h, 40 ppm (*)): 100%; pest or weed control at 40 ppm ([1]; 192 h, 40 ppm (*)): 100%; pest or weed control at 40 ppm (Botrytis cinerea; Botrytis cinerea, 120 h, 40 ppm (*)): 11%; pest or weed control at 40 ppm ([2]; Blumeria graminis, 192 h, 40 ppm (*)): 98%
COC(=O)NCc1cc(-n2ncc(-c3ccc(C)cc3C)n2)ccc1C [Compound 97]						100* %	100* %	43* %	99* %	
methyl N-[[5-[3-(6-methoxy-2-methyl-3-pyridinyl)-1H-pyrazol-1-yl]-2-methylphenyl]methyl]carbamate [Compound 115]						100* %	100* %		100* %	Test C disease control rating (Septoria tritici; 40 ppm (*)): 99* %
